Structures are written as SMILES.

The nature of one series: Solubility in water. It is filed as physicochemical. Conditions: except at low or high pH conditions.
A further series concerns GI transit. Nature of the series: GI transit score (GITS) by transit of radio-opaque markers (SITZMARKS) in subjects given loperamide. Conditions: for GI Score: x-ray Day 4, group mean, normal 255.56. Format: in vivo, healthy subjects. How it is done:
Subjects were randomly assigned to receive one of the following five treatments: • Group 1: […] Study Assessments Subjects were assessed for their pain at the I.V. infusion site using a categorical four-point verbal scale (i.e., no discomfort/pain, mild discomfort/pain, moderate pain, or severe pain). The Investigator also assessed certain characteristics (e.g., erythema) of the I.V. site (i.e., none, mild, moderate, or severe). Abdominal x-rays and x-rays of stool samples were performed to determine the location of the […] markers. Oral […] capsules were administered on Days 1, 2, and 3 at the same time that study medication is administered each day.

For series [1], the target named is μ opioid receptors in the GI tract (Homo sapiens, UniProt P35372). Nature of the series: Free alvimopan plasma concentration after a 12 mg oral dose before surgery, compared with Ki. It is filed as in vivo, patients. How it is done: A Practical Introduction to Structure, Mechanism, and Data Analysis, 2nd Edition, (New York: Wiley-VCH, 2000), page 88, the disclosure of which is incorporated herein by reference.
Chain of μ opioid receptors in the GI tract (P35372 whole entry): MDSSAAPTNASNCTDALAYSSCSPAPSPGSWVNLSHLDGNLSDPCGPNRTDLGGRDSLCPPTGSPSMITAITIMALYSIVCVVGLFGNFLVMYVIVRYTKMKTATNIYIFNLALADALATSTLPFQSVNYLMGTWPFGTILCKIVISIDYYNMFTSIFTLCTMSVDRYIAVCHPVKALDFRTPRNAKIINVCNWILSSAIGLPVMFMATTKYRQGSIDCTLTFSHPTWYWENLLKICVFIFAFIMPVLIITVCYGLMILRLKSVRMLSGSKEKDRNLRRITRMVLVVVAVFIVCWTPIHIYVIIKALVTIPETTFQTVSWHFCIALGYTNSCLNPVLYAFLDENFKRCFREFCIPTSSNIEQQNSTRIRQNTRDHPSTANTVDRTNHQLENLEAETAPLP
Twelve milligrams of alvimopan (two 6 mg capsules) was administered orally to patients about 120 minutes prior to surgery. The free alvimopan plasma concentration was measured for about 24 hours.

Series [2] in a line: Plasma exposure (AUC (τ)) of I.V. alvimopan given for 4 days with loperamide. It is filed as in vivo, healthy subjects. Particulars: group mean. The protocol:
Subjects were randomly assigned to receive one of the following five treatments: • Group 1: […] Study Assessments Serial blood samples were collected for the determination of concentrations of alvimopan and its amide hydrolysis metabolite in plasma. The appropriate dose was drawn into the delivery system, normal saline was added to bring the total volume to 6 mL, and the contents will be mixed thoroughly. Placebo for alvimopan I.V. was 6 mL of normal saline. […] The first eight subjects in each treatment group followed a full sampling schedule and the last four subjects followed a sparse sampling schedule. For the first eight subjects (full sampling schedule), blood samples was collected just prior to administration of alvimopan I.V. on Days 1 through 4 (four samples); and at 0.5, 1, 1.5, 2, 5, 10, 20, 30, and 60 minutes and at 2, 4, 6, 8, 10, 12, 16, 24, 48, 72, 96, 120, 144, and 168 hours after the end of the infusion of alvimopan I.V. on Day 4. This is a total of 27 samples per subject (135 mL per subject). For the last four subjects in each treatment group (sparse sampling schedule), blood was collected prior to administration of alvimopan I.V. on Days 1 through 4 (four samples), and immediately following the last infusion on Day 4. Subjects were randomized to have one sample collected during each of the following intervals, relative to the end of the infusion on Day 4: […]

Where [3] appears, read: Group 3 (alvimopan 1 mg I.V. b.i.d. + loperamide 2 mg p.o. q.i.d.).
Setting [4] is: Group 4 (alvimopan 0.45 mg I.V. b.i.d. + loperamide 2 mg p.o. q.i.d.).
The mark [5] stands for this setting: Group 5 (alvimopan 0.1 mg I.V. b.i.d. + loperamide 2 mg p.o. q.i.d.).

With `C[C@H]1CN(C[C@H](Cc2ccccc2)C(=O)NCC(=O)O)CC[C@@]1(C)c1cccc(O)c1` [alvimopan, [[(2S)-2-[[(3R,4R)-4-(3-hydroxyphenyl)-3,4-dimethylpiperidin-1-yl]methyl]-3-phenylpropanoyl]amino]acetic acid dihydrate], the solubility in water entry in the series “Solubility in water” is listed as “low solubility in water”. The figures for the “GI Score” value in the series with GI transit (setting [3]), with GI transit (setting [4]) and with GI transit (setting [5]) were 231, 274.62 and 278.5, respectively. The “GI score compared with Group 2 (loperamide + placebo) and normal (Group 1)” value with GI transit (Group 4) and in the series with GI transit (Group 5) was “statistically different from Group 2” in each case. In series [1] (single 12 mg oral dose (two 6 mg capsules), about 120 minutes prior to surgery, FIG. 1), the “free plasma concentrations versus saturation of μ opioid receptors in the GI tract” value was “sufficient to substantially saturate μ opioid receptors in the GI tract”. In addition, the “Maximum free plasma concentrations achieved relative to the Ki” value in series [1] (single 12 mg oral dose, FIG. 1) was found to be 11 fold. Moreover, the receptor occupancy at 12 mg in series [1] (single 12 mg oral dose, read-out: estimated receptor occupancy) is over 68%. The results for the “AUC (τ) of Alvimopan” value in series [2] (setting [3]), in series [2] (setting [4]) and in series [2] (setting [5]) were 4.36 ng·mL/h, 22.06 ng·mL/h and 49.79 ng·mL/h, respectively.

Turning to `CN(C)C(=O)C(CCN1CCC(O)(c2ccc(Cl)cc2)CC1)(c1ccccc1)c1ccccc1` [loperamide, reference compound], in the series with GI transit (Group 2: loperamide 2 mg p.o. q.i.d. + placebo for alvimopan I.V.), the “GI Score” value turned out to be 208.67.

Source of the values: patent US8946262B2, “Methods of preventing and treating gastrointestinal dysfunction” (Adolor Corporation, priority 2003, dated 2015).
